ChEMBL document CHEMBL6109101, “Synthesis and bioactivity of cyclic peptide GG-8-6 analogues as anti-hepatocellular carcinoma agents” (Eur J Med Chem, 2025)
pIC50: −log10 of the molar value. The source made the active and inactive calls. No cut-off for these calls is given here.

Assays:
[1] = Toxicity in nude mouse implanted with human MHCC97H cells assessed as spleen damage at 5 to 10 mg/kg, po administered daily for 3 weeks by H and E staining based analysis; assay type: organism-based; details: in vivo, 504 h, dose 5-10 mg/kg
[2] = Toxicity in nude mouse implanted with human MHCC97H cells assessed as lung damage at 5 to 10 mg/kg, po administered daily for 3 weeks by H and E staining based analysis; assay type: organism-based; details: in vivo, 504 h, dose 5-10 mg/kg
[3] = Toxicity in nude mouse implanted with human MHCC97H cells assessed as liver damage at 5 to 10 mg/kg, po administered daily for 3 weeks by H and E staining based analysis; assay type: organism-based; details: in vivo, 504 h, dose 5-10 mg/kg
[4] = Toxicity in nude mouse implanted with human MHCC97H cells assessed as body weight at 10 mg/kg, po administered daily for 3 weeks and measured immediately (reference value: 25.05 g); assay type: organism-based; details: in vivo, 504 h
[5] = Toxicity in nude mouse implanted with human MHCC97H cells assessed as body weight at 5 mg/kg, po administered daily for 3 weeks and measured at day 22 (reference value: 26.38 g); assay type: organism-based; details: in vivo, 1032 h, time 43 day
[6] = Toxicity in nude mouse implanted with human MHCC97H cells assessed as body weight at 5 mg/kg, po administered daily for 3 weeks and measured immediately (reference value: 25.05 g); assay type: organism-based; details: in vivo, 504 h
MHCC97H [7] = experiment: Cytotoxicity against human MHCC97H cells assessed as inhibition of cell proliferation incubated for 48 hrs by MTT assay; assay type: functional, cell-based
HCCLM3 [8] = experiment: Cytotoxicity against human HCCLM3 cells assessed as inhibition of cell proliferation incubated for 48 hrs by MTT assay; assay type: functional, cell-based; details: HCCLM3, 48 h
[9] = Toxicity in nude mouse implanted with human MHCC97H cells assessed as kidney damage at 5 to 10 mg/kg, po administered daily for 3 weeks by H and E staining based analysis; assay type: organism-based; details: in vivo, 504 h, dose 5-10 mg/kg
[10] = Toxicity in nude mouse implanted with human MHCC97H cells assessed as body weight at 10 mg/kg, po administered daily for 3 weeks and measured at day 22 (reference value: 26.38 g); assay type: organism-based; details: in vivo, 1032 h, time 43 day
Huh-7 = experiment: Cytotoxicity against human Huh-7 cells assessed as inhibition of cell proliferation incubated for 48 hrs by MTT assay; assay type: functional, cell-based; details: Huh-7, 48 h
HepG2 = experiment: Cytotoxicity against human HepG2 cells assessed as inhibition of cell proliferation incubated for 48 hrs by MTT assay; assay type: functional, cell-based; details: HepG2, 48 h
[11] = Toxicity in nude mouse implanted with human MHCC97H cells assessed as heart damage at 5 to 10 mg/kg, po administered daily for 3 weeks by H and E staining based analysis; assay type: organism-based; details: in vivo, 504 h, dose 5-10 mg/kg
MHCC97H [12] = experiment: Antitumor activity against human MHCC97H cells xenografted in nude mouse assessed as tumor growth inhibition at 20 mg/kg, po administered daily for 3 weeks relative to control; assay type: functional; details: 504 h, read-out: TGI
MHCC97H [13] = experiment: Antitumor activity against human MHCC97H cells xenografted in nude mouse assessed as tumor weight at 20 mg/kg, po administered daily for 3 weeks (reference value: 1.667g); assay type: functional
[14] = Toxicity in nude mouse implanted with human MHCC97H cells assessed as body weight at 20 mg/kg, po administered daily for 3 weeks and measured immediately (reference value: 25.05 g); assay type: organism-based; details: in vivo, 504 h
HCCLM3 [15] = experiment: Cytotoxicity against human HCCLM3 cells assessed as reduction in cell viability up to 40 uM measured at 48 hrs by MTT assay; assay type: functional, cell-based
HCCLM3 [16] = experiment: Cytotoxicity against human HCCLM3 cells assessed as reduction in cell viability at 40 uM measured at 48 hrs by MTT assay; assay type: functional, cell-based
MHCC97H [17] = experiment: Cytotoxicity against human MHCC97H cells assessed as reduction in cell viability at 40 uM measured at 48 hrs by MTT assay; assay type: functional, cell-based
HCCLM3 [18] = experiment: Cytotoxicity against human HCCLM3 cells assessed as cell viability incubated at 12 to 48 hrs hrs by MTT assay; assay type: functional, cell-based; details: dose <= 40.0 µM, time 12-48 hrs
HCCLM3 [19] = experiment: Cytotoxicity against human HCCLM3 cells assessed as cell viability up to 40 uM by MTT assay; assay type: functional, cell-based; details: time 12-48 hrs
MHCC97H [20] = experiment: Cytotoxicity against human MHCC97H cells assessed as cell viability incubated at 12 to 48 hrs hrs by MTT assay; assay type: functional, cell-based; details: dose <= 40.0 µM, time 12-48 hrs
HCCLM3 [21] = experiment: Cytotoxicity against human HCCLM3 cells assessed as cell viability up to 40 uM measured at 24 to 48 hrs by MTT assay; assay type: functional, cell-based; details: time 24-48 hrs
MHCC97H [22] = experiment: Cytotoxicity against human MHCC97H cells assessed as cell viability up to 40 uM measured at 24 to 48 hrs by MTT assay; assay type: functional, cell-based; details: time 24-48 hrs
MHCC97H [23] = experiment: Cytotoxicity against human MHCC97H cells assessed as cell viability up to 40 uM measured at 12 hrs by MTT assay; assay type: functional, cell-based
MHCC97H [24] = experiment: Antitumor activity against human MHCC97H cells xenografted in nude mouse assessed as increase in apoptotic cells at 5 to 10 mg/kg, po administered daily for 3 weeks by TUNEL staining based assay; assay type: functional, organism-based; details: dose 5-10 mg/kg
MHCC97H [25] = experiment: Cytotoxicity against human MHCC97H cells assessed as reduction in cell viability at 40 uM measured after 48 hrs by MTT assay; assay type: functional, cell-based
HCCLM3 [26] = experiment: Cytotoxicity against human HCCLM3 cells assessed as cell viability up to 40 uM measured at 12 hrs by MTT assay; assay type: functional, cell-based
MHCC97H [27] = experiment: Cytotoxicity against human MHCC97H cells assessed as cell viability up to 40 uM by MTT assay; assay type: functional, cell-based; details: time 12-48 hrs
MHCC97H [28] = experiment: Cytotoxicity against human MHCC97H cells assessed as reduction in cell viability up to 40 uM measured at 48 hrs by MTT assay; assay type: functional, cell-based
HCCLM3 [29] = experiment: Cytotoxicity against human HCCLM3 cells assessed as reduction in cell viability at 40 uM measured after 48 hrs by MTT assay; assay type: functional, cell-based

## CC[C@H](C)[C@@H]1NC(=O)[C@@H]2CCCN2C(=O)[C@H](CC(C)C)NC(=O)[C@H](COC(C)(C)C)NC(=O)[C@H](CC(C)C)NC(=O)[C@H](C(C)C)NC(=O)[C@H](CC(C)C)NC(=O)[C@H](CC(C)C)NC(=O)[C@H](CC(C)C)NC1=O
[1]
  Activity: Non-toxic
[2]
  Activity: Non-toxic
[3]
  Activity: Non-toxic
[4]
  Activity: 25.6 g
[5]
  Activity: 26.7 g
[6]
  Activity: 25.98 g
MHCC97H [7]
  pIC50: 5.39
HCCLM3 [8]
  pIC50: 5.34
[9]
  Activity: Non-toxic
[10]
  Activity: 26.43 g
Huh-7
  pIC50: 5.48
HepG2
  pIC50: 5.48
[11]
  Activity: Non-toxic

## CNC(=O)c1cc(Oc2ccc(NC(=O)Nc3ccc(Cl)c(C(F)(F)F)c3)cc2)ccn1 [SORAFENIB]
MHCC97H [12]
  inhibition in vivo at 20 mg/kg: 42.8%
MHCC97H [7]
  pIC50: 4.82
HCCLM3 [8]
  pIC50: 5.04
MHCC97H [13]
  Activity: 0.955 g
[14]
  Activity: 26.85 g
Huh-7
  pIC50: 4.86
HepG2
  pIC50: 4.86

## CC[C@@H](C)[C@H]1NC(=O)[C@@H]2CCCN2C(=O)[C@@H](CC(C)C)NC(=O)[C@H](COC(C)(C)C)NC(=O)[C@@H](CC(C)C)NC(=O)[C@H](C(C)C)NC(=O)[C@H](CC(C)C)NC(=O)[C@H](CC(C)C)NC(=O)[C@H](CC(C)C)NC1=O
HCCLM3 [15]
  Activity: Active
HCCLM3 [16]
  Activity: Active
MHCC97H [17]
  Activity: Active
HCCLM3 [18]
  Activity: Dose-dependent-effect
HCCLM3 [19]
  Activity: Time-dependent-effect
MHCC97H [20]
  Activity: Dose-dependent-effect
HCCLM3 [21]
  Activity: Active
MHCC97H [22]
  Activity: Active
MHCC97H [23]
  Activity: Active
MHCC97H [24]
  Activity: Active
MHCC97H [25]
  Activity: Active
HCCLM3 [26]
  Activity: Active
MHCC97H [27]
  Activity: Time-dependent-effect
MHCC97H [28]
  Activity: Active
HCCLM3 [29]
  Activity: Active
